In test [1] the test system is Hep 3B2. Nature of the test: Induction of erythropoietin gene expression in human Hep3B cells over expressing human EPO assessed as maximal transcription induction ratio at 2.1 uM by luciferase reporter gene assay. The class given is functional. Background: Reporter assays use an easily measured gene product as a stand-in for the process of interest.
The test system of test [2] is Hep 3B2. Put plainly: Induction of erythropoietin gene expression in human Hep3B cells over expressing human EPO assessed as drug level required to produce 5 fold transcription induction ratio. Format: functional.
Test [3] relates to Hep 3B2. Put plainly: Induction of erythropoietin secretion in human Hep3B cells expressing human EPO at 10 uM by ELISA. The class given is functional. A general note: In an ELISA, binding on a coated surface is turned into a signal by an enzyme label.
In test [4] the test system is Hep 3B2. Put plainly: Cytotoxicity against human Hep3B cells at =< 20 uM. Format: functional, cell-based.
The test system of test [5] is Hep 3B2. Nature of the test: Induction of erythropoietin gene expression in human Hep3B cells over expressing human EPO assessed as maximal transcription induction ratio at 20 uM by luciferase reporter gene assay. The class given is functional.
For test [6], the system named is Hep 3B2. Nature of the test: Induction of erythropoietin gene expression in human Hep3B cells over expressing human EPO assessed as maximal transcription induction ratio at 5 uM by luciferase reporter gene assay. Format: functional.
The test system of test [7] is Hep 3B2. Put plainly: Induction of erythropoietin gene expression in human Hep3B cells over expressing human EPO assessed as maximal transcription induction ratio at 1.3 uM by luciferase reporter gene assay. Format: functional.
Test [8] deals with Hep 3B2. Nature of the test: Induction of erythropoietin gene expression in human Hep3B cells over expressing human EPO assessed as maximal transcription induction ratio at 10 uM by luciferase reporter gene assay. The class given is functional.

Starred links: 1 amine or outer side, 2 acyl side, 3 side chain; linkers in the order of their positions; H or OH if unused. Non-standard residues stand in square brackets, D forms with d. Residues, ends and D or L forms follow the SMILES beside them. Pentanoyl(2-O,4-OH,5-Cl) = O=C(O)C(O)CC(O)CCl; dLac(3-vinyl) = C=CC[C@@H](O)C(=O)O; NMeI = CC[C@H](C)[C@H](NC)C(=O)O; X1 = C=CC[C@H](O[*:1])C(=O)[*:2]; Hica(2S) = CC(C)C[C@H](O)C(=O)O; dHica = CC(C)C[C@@H](O)C(=O)O; NMeV = CN[C@H](C(=O)O)C(C)C; NMeA = CN[C@@H](C)C(=O)O; βAla = NCCC(=O)O

In the case of `C=CC[C@H]1OC(=O)CCNC(=O)[C@H](C)N(C)C(=O)[C@H](C(C)C)N(C)C(=O)[C@H]([C@@H](C)CC)NC(=O)[C@@H]2CCCN2C1=O` (cyclo(I[NMeV][NMeA][βAla][dLac(3-vinyl)]P)), in test [1], the Ratio amounted to 28. Moreover, the Activity in test [2] is 0.4 µM; in test [3], 37 mU/ml; in test [4] it was “Not toxic”.

Take `CC[C@H](C)[C@H](NC(=O)[C@@H]1CCCN1C(O)CC(O)CCl)C(=O)N(C)[C@H](C(=O)N(C)[C@@H](C)C(=O)NCCC(=O)O)[C@@H](C)CC` (stereo partly specified): the Ratio in test [5] came to 1.

`CC[C@H](C)[C@@H]1NC(=O)[C@@H]2CCCN2C(=O)[C@H](CC(C)C)OC(=O)CCNC(=O)[C@H](C)N(C)C(=O)[C@H]([C@@H](C)CC)N(C)C1=O` [homodestruxin B] (cyclo([Hica(2S)]PI[NMeI][NMeA][βAla])): in test [6], the Ratio was determined as 18. In addition, the Activity is 0.8 µM in test [2], 36 mU/ml in test [3] and “Not toxic” in test [4].

Regarding `CC[C@H](C)[C@@H]1NC(=O)[C@@H]2CCCN2C(=O)C(CC(O)CCl)OC(=O)CCNC(=O)[C@H](C)N(C)C(=O)[C@H]([C@@H](C)CC)N(C)C1=O` (stereo partly specified) (cyclo(I[NMeI][NMeA][βAla][Pentanoyl(2-O,4-OH,5-Cl)]P)), the Ratio in test [7] was found to be 28. For the same compound, the Activity in test [2] is 0.2 µM; in test [3], 36 mU/ml; in test [4], “Not toxic”.

`CC[C@H](C)[C@@H]1NC(=O)[C@@H]2CCCN2C(=O)[C@@H](CC(C)C)OC(=O)CCNC(=O)[C@H](C)N(C)C(=O)[C@H](C(C)C)N(C)C1=O` (cyclo(I[NMeV][NMeA][βAla][dHica]P)): in test [8], the Ratio is 19. For the same compound, the Activity was 2 µM in test [2], 35 mU/ml in test [3] and “Not toxic” in test [4].

In the case of `C=CC[C@@H]1OC(=O)CCNC(=O)[C@H](C)N(C)C(=O)[C@H]([C@@H](C)CC)N(C)C(=O)[C@H]([C@@H](C)CC)NC(=O)[C@@H]2CCCN2C1=O` [destruxin A4] (cyclo(I[NMeI][NMeA][βAla][X1]P)), the Ratio in test [6] is reported as 23. In addition, the values for the Activity in test [2], in test [3] and in test [4] were 0.9 µM, 35 mU/ml and “Not toxic”, respectively.

For the origin of these results see ChEMBL document CHEMBL1141730, “Destruxin-A4 chlorohydrin, a novel destruxin from fungus OS-F68576: isolation, structure determination, and biological activity as an inducer of erythropoietin” (1998).
